Test results reported in patent publication US20130303532A1, “IMIDAZOPYRAZINES FOR USE AS MPS-1 AND TKK INHIBITORS IN THE TREATMENT HYPERPROLIFERATIVE DISORDERS” (BAYER INTELLECTUAL PROPERTY GmbH, priority 2010, published 2013).
pIC50: −log10 of the molar value. Read-outs that look alike come from different tables or passages of the source.

Target: T1, human kinase Mps-1 (Homo sapiens, UniProt P33981)
T1 construct: N-terminally GST-tagged human full length recombinant Mps-1 kinase; GST (N); purchased Invitrogen, Karslruhe, Germany PV4071
T1 sequence (P33981 1-857): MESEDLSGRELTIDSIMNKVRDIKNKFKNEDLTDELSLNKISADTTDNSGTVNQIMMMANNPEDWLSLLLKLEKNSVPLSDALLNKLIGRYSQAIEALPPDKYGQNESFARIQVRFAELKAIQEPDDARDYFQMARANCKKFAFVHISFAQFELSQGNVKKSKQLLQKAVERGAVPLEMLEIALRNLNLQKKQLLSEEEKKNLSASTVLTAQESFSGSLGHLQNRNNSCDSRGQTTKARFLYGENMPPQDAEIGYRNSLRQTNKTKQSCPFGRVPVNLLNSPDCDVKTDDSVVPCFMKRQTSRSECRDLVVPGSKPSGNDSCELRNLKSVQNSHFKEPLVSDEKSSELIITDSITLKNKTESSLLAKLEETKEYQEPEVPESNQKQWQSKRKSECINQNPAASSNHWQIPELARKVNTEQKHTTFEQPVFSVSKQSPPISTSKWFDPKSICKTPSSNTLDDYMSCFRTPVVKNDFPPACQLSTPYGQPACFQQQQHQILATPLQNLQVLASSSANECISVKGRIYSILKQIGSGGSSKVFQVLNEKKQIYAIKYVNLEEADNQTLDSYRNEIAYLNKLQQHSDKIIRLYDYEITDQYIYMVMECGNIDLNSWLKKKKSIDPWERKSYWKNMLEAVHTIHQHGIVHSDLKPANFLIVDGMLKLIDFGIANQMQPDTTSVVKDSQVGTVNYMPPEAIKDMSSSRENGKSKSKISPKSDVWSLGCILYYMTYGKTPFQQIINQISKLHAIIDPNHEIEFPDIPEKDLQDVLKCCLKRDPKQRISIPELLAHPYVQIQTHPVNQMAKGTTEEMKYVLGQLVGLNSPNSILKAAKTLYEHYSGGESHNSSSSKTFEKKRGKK
Assay: Mps-1 kinase assay (TR-FRET)
Format: biochemical
Settings: N-terminally GST-tagged human full length recombinant Mps-1, 10 μM ATP, 1 μM biotinylated peptide substrate, 60 min at 22° C.; for pIC50: read-out: Mps1 IC50; for IC50: Mps1 IC50 [nM]

Compound | pIC50 | IC50 [nM]
2-chloro-N-cyclopropyl-4- {8-[(2- sulfamoylethyl)amino]imi- dazo[1,2-a]pyrazin-3- yl}benzamide [Example 7-67] | 6.60 | 
4-{8-[(3-amino-3- oxopropyl)amino]imi- dazo[1,2-a]pyrazin-3-yl}-N- cyclopropylbenzamide [Example 7-25] | 5.92 | 
Cc1cc(-c2cnc3c(NCC(C)C)nccn23)cc(C)c1C(=O)NC1CC1 [Example 1-2, N-cyclopropyl-2,6-dimethyl-4-{8-[(2-methylpropyl)amino]imi-dazo[1,2-a]pyrazin-3-yl}benzamide] |  | 1230
CC(C)CNc1nccn2c(-c3ccc(C(=O)NC4CC4)cc3F)cnc12 [Example 1-3, N-cyclopropyl-3-fluoro-4-{8-[(2-methylpropyl)amino]imi-dazo[1,2-a]pyrazin-3-yl}benzamide] |  | 9
CC(C)CNc1nccn2c(-c3ccc(C(=O)NC4CC4)c(F)c3)cnc12 [Example 1-4, N-cyclopropyl-2-fluoro-4-{8-[(2-methylpropyl)amino]imi-dazo[1,2-a]pyrazin-3-yl}benzamide] |  | 34
CC(C)(O)CNc1nccn2c(-c3ccc(C(=O)NC4CC4)cc3)cnc12 [Example 3-2, N-cyclopropyl-4-{8-[(2-hydroxy-2-methylpropyl)amino]imidazo[1,2-a]pyrazin-3-yl}benzamide] | 7.03 | 
CS(=O)(=O)CCNc1nccn2c(-c3ccc(C(=O)NC4CC4)cc3)cnc12 [Example 4-1, N-cyclopropyl-4-(8-{[2-(methylsulfonyl)ethyl]amino}imidazo[1,2-a]pyrazin-3-yl)benzamide] | 7.76 | 
CS(=O)(=O)CCCNc1nccn2c(-c3ccc(C(=O)NC4CC4)cc3)cnc12 [Example 4-2, N-cyclopropyl-4-(8-{[3-(methylsulfonyl)propyl]amino}imidazo[1,2-a]pyrazin-3-yl)benzamide] | 7.06 | 
O=C(NC1CC1)c1ccc(-c2cnc3c(NCc4ccccc4F)nccn23)cc1 [Example 4-3, N-cyclopropyl-4-{8-[(2-fluorobenzyl)amino]imi-dazo[1,2-a]pyrazin-3-yl}benzamide] |  | 11
O=C(NC1CC1)c1ccc(-c2cnc3c(NCc4ccn[nH]4)nccn23)cc1 [Example 4-4, N-cyclopropyl-4-{8-[(1H-pyrazol-5-ylmethyl)amino]imi-dazo[1,2-a]pyrazin-3-yl}benzamide] |  | 69.8
COC(=O)CCNc1nccn2c(-c3ccc(C(=O)NC4CC4)cc3)cnc12 [Example 4-6, methyl N-{3-[4-(cyclopropylcarbamoyl)phen-yl]imidazo[1,2-a]pyrazin-8-yl}-beta-alaninate] | 7.13 | 

Now from value to compound, other results behind:

pIC50 | Compound | IC50 [nM]
7.28 | Cc1cc(C(=O)NC2CC2)ccc1-c1cnc2c(NCC(C)C)nccn12 [Example 1-1, N-cyclopropyl-3-methyl-4-{8-[(2-methylpropyl)amino]imidazo[1,2-a]pyrazin-3-yl}benzamide] | 
7.26 | O=C(NC1CC1)c1ccc(-c2cnc3c(NCCCO)nccn23)cc1 [Example 3-1, N-cyclopropyl-4-[8-[(3-hydroxypropyl)amino]imidazo[1,2-a]pyrazin-3-yl]benzamide] | 
5.60 | NCCCNc1nccn2c(-c3ccc(C(=O)NC4CC4)c(Cl)c3)cnc12 [Example 3-3, 4-{8-[(3-Aminopropyl)amino]imidazo[1,2-a]pyrazin-3-yl}-2-chloro-N-cyclopropylbenzamide] | 
6.38 | COc1cc(C(=O)NC2CC2)ccc1-c1cnc2c(NCCCN)nccn12 [Example 3-4, 4-{8-[(3-Aminopropyl)amino]imidazo[1,2-a]pyrazin-3-yl}-N-cyclopropyl-3-methoxybenzamide] | 
6.99 | COC(=O)CCCNc1nccn2c(-c3ccc(C(=O)NC4CC4)cc3)cnc12 [Example 4-5, methyl 4-({3-[4-(cyclopropylcarbamoyl)phen-yl]imidazo[1,2-a]pyrazin-8-yl}amino)butanoate] | 
7.43 | CCCCNc1nccn2c(-c3ccc(C(=O)NC4CC4)cc3)cnc12 [Example 4-7, 4-[8-(butylamino)imidazo[1,2-a]pyrazin-3-yl]-N-cyclopropylbenzamide] | 
